Assay results as given in patent US20180071317A1, “USE OF AGENTS THAT ALTER THE PERITUMORAL ENVIRONMENT FOR THE TREATMENT OF CANCER” (SERVICIO ANDALUZ DE SALUD, priority 2011, published 2018).

Experiments:
[1] = system: fibroblasts (PHF) co-cultured with tumor cells of human cervix carcinoma (KB); assay: Marker expression (IHC) in PHF co-cultured with KB tumor cells; assay type: cell-based; details: co-culture with KB; SP 1 μM + antagonist 1 μM; 48 h;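 further: percentage of PHF fibroblasts showing expression of each marker, cultured in fresh blood plasma from a healthy human donor, six replicates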
Experimental: (§1) All cultures were maintained 48 hours, following which the same cells were included in paraffin blocks for subsequent analysis of the expression of different markers by immunohistochemistry (see Example 1). […] All experiments were carried out sixfold. Analyzed markers in fibroblast cells (stromal cells) were: TGF-α, TGF-β1, TGF-β2, TGF-β3, SPARC, MMP-3, MMP-7, MMP-9, MMP-11, MMP-13 and MMP-14.

[2] = system: fibroblasts of tumors produced by human rhabdomyosarcoma tumor line (A-204); assay: Marker expression (IHC) in fibroblasts of tumor or peritumoral area, mouse model, A-204; assay type: in vivo; details: A-204 tumors in mice, 30 mg/kg/day oral, 7 days
Experimental: In vitro tests conducted in Example 5 are now carried out in an experimental model in mice in vivo. […] Subsequently, the expression in fibroblasts tumoral and peritumoral area of molecular markers associated with progression and maintenance of tumors: TGF-α, TGF-β1, TGF-β2, TGF-β3, MMP-7, MMP-11, MMP-14 were analyzed by immunohistochemistry.
Were injected with 2×10^7 cells tumors (corresponding, in each case to each of the tumor types as specified in Table 9) in 200 of PBS subcutaneously μl. […] Mice were randomized into two groups when the tumors reached a volume of 75 mm^3 One group was treated with non-peptide receptor antagonists NK1 and the other with placebo 200μ1. […] Tumors and samples of non-neoplastic stromal areas remote from the tumor were halved, formalin fixed (4%) and then were included in paraffin blocks for analysis by immunohistochemistry.
The expression on fibroblast cells obtained in the animal model was analyzed by immunohistochemistry, of the above markers: TGF-α, TGF-β1, TGF-β2, TGF-β3, MMP-7, MMP-1 1, MMP-14MP-14. Tables 32 to 35 depict the type of label used and the average percentage of fibroblasts present in non-tumor areas, tumor and peritumoral (±SD) which were expressing the marker shown in each of the tumor types developed from of the different cell lines used. This process was realized in mice treated with non-peptide antagonists of NK1 receptor and in untreated animals (control).

[3] = system: tumors from the tumor cell lines of Table 9; assay: Mean tumor volume in nude mice injected subcutaneously with human tumor cells; details: 30 mg/kg/day oral, 7 days
[4] = system: fibroblasts (PHF) co-cultured with tumor cells of human Burkitt lymphoma (CA-46); assay: Marker expression (IHC) in PHF co-cultured with CA-46 tumor cells; assay type: cell-based; details: PHF co-cultured with CA-46 + SP + NK1 antagonist;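 further: percentage of PHF fibroblasts positive for each marker, cultures grown in fresh human plasma from a healthy donor, six replicates, compared with fibroblasts cultured alone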
Experimental: All cultures were maintained 48 hours, following which the same cells were included in paraffin blocks for subsequent analysis of the expression of different markers by immunohistochemistry (see Example 1). The primary antibodies used to perform immunohistochemical assays and their concentration are detailed in Example 2. All experiments were carried out sixfold. Analyzed markers in fibroblast cells (stromal cells) were: TGF-α, TGF-β1, TGF-β2, TGF-β3, SPARC, MMP-3, MMP-7, MMP-9, MMP-11, MMP-13 and MMP-14.

[5] = system: fibroblasts (PHF) co-cultured with tumor cells of lung carcinoma (A-427); assay: Marker expression (IHC) in PHF co-cultured with A-427 tumor cells; assay type: cell-based, human; details: co-culture with A-427 lung carcinoma; SP 1 μM + antagonist 1 μM; 48 h;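 further: cultures grown in human blood plasma from a healthy donor, value is the percentage of fibroblasts positive for each marker, six replicates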
Experimental: as §1

[6] = system: fibroblasts (PHF) co-cultured with human neuroblastoma tumor cells (KELLY); assay: Marker expression (IHC) in PHF co-cultured with KELLY tumor cells; assay type: cell-based; details: PHF co-cultured with KELLY + SP + NK1 antagonist;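 further: Co-cultures grown on healthy-donor human blood plasma, run in six replicates, value is percentage of fibroblasts positive for each marker, compared with fibroblasts cultured alone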
Experimental: as §1

Cc1cc(F)ccc1[C@H]1CNCCN1C(=O)N(C)[C@H](C)c1cc(C(F)(F)F)cc(C(F)(F)F)c1 [Vestipitant]
PHF cells expressing MMP-3 [1]: 0% | PHF cells expressing MMP-7 [1]: 0% | PHF cells expressing MMP-9 [1]: 0% | PHF cells expressing MMP-11 [1]: 0% | PHF cells expressing MMP-13 [1]: 0% | PHF cells expressing MMP-14 [1]: 0% | PHF cells expressing SPARC [1]: 0% | PHF cells expressing TGF-α [1]: 0% | PHF cells expressing TGF-β1 [1]: 0% | PHF cells expressing TGF-β2 [1]: 0% | PHF cells expressing TGF-β3 [1]: 0% | fibroblasts expressing MMP-7 [2]: 0% | fibroblasts expressing MMP-11 [2]: 0% | fibroblasts expressing MMP-14 [2]: 0% | fibroblasts expressing TGF-α [2]: 0% | fibroblasts expressing TGF-β 1 [2]: 0% | fibroblasts expressing TGF-β 2 [2]: 0% | fibroblasts expressing TGF-β 3 [2]: 0% | Mean tumor volume ([3]; B lymphoblastic leukemia (peripheral human B lymphoblastoid cells) SD1): 112 ± 8 | Mean tumor volume ([3]; Carcinoma of human non-small cell lung COR-L23): 111 ± 3 | Mean tumor volume ([3]; Carcinoma of human non-small cell lung H-1963): 101 ± 6 | Mean tumor volume ([3]; Carcinoma of human non-small cell lung HCC-44): 100 ± 4 | Mean tumor volume ([3]; Carcinoma of human small cell lung H-209): 113 ± 5 | Mean tumor volume ([3]; Carcinoma of human urinary bladder 5637): 112 ± 3 | Mean tumor volume ([3]; Human B lymphoma BC-1): 101 ± 9 | Mean tumor volume ([3]; Human Burkitt lymphoma CA-46): 100 ± 19 | Mean tumor volume ([3]; Human Fibrosarcoma HT-1080): 112 ± 4 | Mean tumor volume ([3]; Human Hodgkin lymphoma KM-H2): 99 ± 8 | Mean tumor volume ([3]; Human Rhabdomyosarcoma A-204): 97 ± 9 | Mean tumor volume ([3]; Human T-cell leukemia/NK YT): 101 ± 3 | Mean tumor volume ([3]; Human T-lymphoma DERL human Hodgkin 7Linfoma KM-H2): 90 ± 9 | Mean tumor volume ([3]; Human breast adenocarcinoma humano MCF-7): 78 ± 7 | Mean tumor volume ([3]; Human breast carcinoma MDA-MB-468): 84 ± 7 | Mean tumor volume ([3]; Human breast carcinoma MT-3): 78 ± 8 | Mean tumor volume ([3]; Human choriocarcinoma AC-1M32): 88 ± 8 | Mean tumor volume ([3]; Human colon carcinoma SW-403): 78 ± 2 | Mean tumor volume ([3]; Human endometrial carcinoma AN3-CA): 89 ± 1 | Mean tumor volume ([3]; Human endometrial stromal sarcoma ESS-1): 99 ± 3 | Mean tumor volume ([3]; Human folicular thyroid carcinoma TT2609-C02): 100 ± 4 | Mean tumor volume ([3]; Human gastric adenocarcinoma 23132/87): 63 ± 8 | Mean tumor volume ([3]; Human glioma GAMG): 101 ± 4 | Mean tumor volume ([3]; Human lung carcinoma A-427): 98 ± 10 | Mean tumor volume ([3]; Human lung carcinoma DV-90): 136 ± 10 | Mean tumor volume ([3]; Human lymphoblastic leukemia T BE-13): 111 ± 4 | Mean tumor volume ([3]; Human malignant fibrous histiocytoma U-2197): 95 ± 8 | Mean tumor volume ([3]; Human melanoma MEL HO): 102 ± 4 | Mean tumor volume ([3]; Human multiple myeloma COLO-677): 101 ± 4 | Mean tumor volume ([3]; Human neuroblastoma KELLY): 121 ± 4 | Mean tumor volume ([3]; Human neuroblastoma bone marrow SKN-BE 2): 101 ± 7 | Mean tumor volume ([3]; Human osteosarcoma CAL-72): 104 ± 9 | Mean tumor volume ([3]; Human ovarian adenocarcinoma EFO-27): 63 ± 7 | Mean tumor volume ([3]; Human ovarian carcinoma COLO-704): 78 ± 8 | Mean tumor volume ([3]; Human pancretic adenocarcinoma CAPAN-1): 85 ± 8 | Mean tumor volume ([3]; Human pancretic adenocarcinoma PA-TU 8902): 91 ± 6 | Mean tumor volume ([3]; Human papillary thyroid carcinoma metastasizing B-CPAP): 102 ± 2 | Mean tumor volume ([3]; Human prostate carcinoma 22RV1): 98 ± 2 | Mean tumor volume ([3]; Human retinoblastoma WERI-Rb-1): 112 ± 8 | Mean tumor volume ([3]; Human thyroid carcinoma 8505C): 98 ± 9 | Mean tumor volume ([3]; Human uterine cervix carcinoma KB): 89 ± 1 | Mean tumor volume ([3]; Melanoma humano, metástasis en ganglio linfático COLO 858): 110 ± 4 | Mean tumor volume ([3]; Sarcoma human Edwing MHH-ES-1): 115 ± 3 | Mean tumor volume ([3]; Transitional Carcinoma of human urinary bladder RT-4): 120 ± 3 | cells expressing MMP-3 [4]: 0% | cells expressing MMP-7 [4]: 0% | cells expressing MMP-9 [4]: 0% | cells expressing MMP-11 [4]: 0% | cells expressing MMP-13 [4]: 0% | cells expressing MMP-14 [4]: 0% | cells expressing SPARC [4]: 0% | cells expressing TGF-α [4]: 0% | cells expressing TGF-β1 [4]: 0% | cells expressing TGF-β2 [4]: 0% | cells expressing TGF-β3 [4]: 0% | PHF cells expressing MMP-3 [5]: 0% | PHF cells expressing MMP-7 [5]: 0% | PHF cells expressing MMP-9 [5]: 0% | PHF cells expressing MMP-11 [5]: 0% | PHF cells expressing MMP-13 [5]: 0% | PHF cells expressing MMP-14 [5]: 0% | PHF cells expressing SPARC [5]: 0% | PHF cells expressing TGF-α [5]: 0% | PHF cells expressing TGF-β1 [5]: 0% | PHF cells expressing TGF-β2 [5]: 0% | PHF cells expressing TGF-β3 [5]: 0% | cells expressing MMP-3 [6]: 0% | cells expressing MMP-7 [6]: 0% | cells expressing MMP-9 [6]: 0% | cells expressing MMP-11 [6]: 0% | cells expressing MMP-13 [6]: 0% | cells expressing MMP-14 [6]: 0% | cells expressing SPARC [6]: 0% | cells expressing TGF-α [6]: 0% | cells expressing TGF-β1 [6]: 0% | cells expressing TGF-β2 [6]: 0% | cells expressing TGF-β3 [6]: 0%
